According to patent US20050101595A1, “N-containing cycloalkyl-substituted amino-thiazole derivatives and pharmaceutical compositions for inhibiting cell proliferation and methods for their use” (PFIZER INC., priority 2003, published 2005):

Tests used:
[1] = target: CDK2/Cyclin A (Homo sapiens, UniProt P24941); experiment: Inhibition of CDK2/Cyclin A Retinoblastoma Kinase Activity; format: biochemical; details: 0.03 μM compound
Method in brief: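 Percent inhibition is calculated against DMSO-only wells after subtracting no-enzyme background. The enzyme is human CDK2 complexed with proteolyzed cyclin A, used at 10 nM or 19 nM on an Rb fragment with 25 μM [32/33P]ATP, at pH 7.4 and 30° C.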

[2] = target: human CDK4 and genetically truncated (1-264) cyclin D3 (Homo sapiens, UniProt P11802); experiment: Inhibition of CDK4/Cyclin D Retinoblastoma Kinase Activity; format: biochemical; details: 0.03 μM compound
human CDK4 and genetically truncated (1-264) cyclin D3, sequence (P11802 whole entry, the tested form may be a part): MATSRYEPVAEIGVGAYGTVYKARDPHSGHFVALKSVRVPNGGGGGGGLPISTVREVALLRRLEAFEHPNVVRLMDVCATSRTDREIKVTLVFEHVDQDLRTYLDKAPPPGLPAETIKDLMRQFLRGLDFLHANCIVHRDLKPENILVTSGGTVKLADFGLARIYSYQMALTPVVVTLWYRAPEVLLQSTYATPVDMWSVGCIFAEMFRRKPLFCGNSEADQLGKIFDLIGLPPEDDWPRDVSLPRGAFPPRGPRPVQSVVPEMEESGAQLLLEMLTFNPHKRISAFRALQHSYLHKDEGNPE
human CDK4 and genetically truncated (1-264) cyclin D3, sequence (P30281 1-264 partner): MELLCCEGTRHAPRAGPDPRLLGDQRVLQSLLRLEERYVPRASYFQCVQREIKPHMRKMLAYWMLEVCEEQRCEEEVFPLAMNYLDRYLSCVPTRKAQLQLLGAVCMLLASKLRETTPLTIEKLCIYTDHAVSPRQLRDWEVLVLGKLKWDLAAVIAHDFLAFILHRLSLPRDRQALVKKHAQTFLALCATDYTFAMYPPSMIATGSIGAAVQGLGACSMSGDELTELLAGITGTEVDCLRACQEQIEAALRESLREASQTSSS
Method in brief: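 Apparent Ki values derive from fitting activity at varied inhibitor concentrations to a competitive (or competitive tight-binding) model. Kinase reactions used 5 nM CDK4/cyclin D3(1-264), Rb fragment substrate and 25 μM ATP. Incubation ran 20 min at 30 °C, extended to 60 min under linear conditions for tight binders.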

[3] = test system: HCT-116 cell line; experiment: Inhibition of cell growth, tetrazolium salt (MTT) assay; format: cell-based; details: HCT-116; for HCT-116 % Inhibition at 0.1 μM: 0.1 μM compound; for HCT-116 % Inhibition at 0.25 μM: 0.25 μM compound
Method in brief: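 MTT colorimetric viability: three-to-five-day compound exposure in 0.5% (v/v) DMSO at 37° C, MTT 0.2 mg/mL for the last 4 h, A540 compared with vehicle-treated cells.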

| Compound | CDK2 % Inhibition at 0.03 μM ([1]; Table 3) | CDK4 % Inhibition at 0.03 μM ([2]; Table 3) | HCT-116 % Inhibition at 0.1 μM ([3]; Table 3) | HCT-116 % Inhibition at 0.25 μM ([3]; Table 3) | CDK2 % Inhibition at 0.03 μM ([1]; Table 4) | CDK4 % Inhibition at 0.03 μM ([2]; Table 4) | HCT-116 % Inhibition at 0.1 μM ([3]; Table 4) | HCT-116 % Inhibition at 0.25 μM ([3]; Table 4) |
| --- | --- | --- | --- | --- | --- | --- | --- | --- |
| Nc1nc(NC2CCN(S(=O)(=O)c3ccc(CBr)cc3)CC2)sc1C(=O)c1c(F)cccc1F [Example P68] | 72% | 70% | 8% | 25% | – | – | – | – |
| Cc1c(S(=O)(=O)N2CCC(Nc3nc(N)c(C(=O)c4c(F)cccc4F)s3)CC2)sc2ccc(Cl)cc12 [Example P69] | −2% | 21% | 13% | 30% | – | – | – | – |
| COC(=O)c1csc(S(=O)(=O)N2CCC(Nc3nc(N)c(C(=O)c4c(F)cccc4F)s3)CC2)c1OC [Example P70] | 37% | 60% | 14% | 27% | – | – | – | – |
| N#Cc1ccc(S(=O)(=O)N2CCC(Nc3nc(N)c(C(=O)c4c(F)cccc4F)s3)CC2)c(Cl)c1 [Example P71] | 57% | 52% | 13% | 21% | – | – | – | – |
| CSc1nccc(-c2ccc(S(=O)(=O)N3CCC(Nc4nc(N)c(C(=O)c5c(F)cccc5F)s4)CC3)s2)n1 [Example P72] | 61% | 61% | 13% | 35% | – | – | – | – |
| CCCCOc1ccc(C(C)(C)CC(C)(C)C)cc1S(=O)(=O)N1CCC(Nc2nc(N)c(C(=O)c3c(F)cccc3F)s2)CC1 [Example P73] | −28% | 1% | 16% | 30% | – | – | – | – |
| CCCCOc1ccc(C(C)(C)CC)cc1S(=O)(=O)N1CCC(Nc2nc(N)c(C(=O)c3c(F)cccc3F)s2)CC1 [Example P74] | −30% | 4% | 19% | 27% | – | – | – | – |
| Nc1nc(NC2CCN(S(=O)(=O)c3ccc(Cl)c4nonc34)CC2)sc1C(=O)c1c(F)cccc1F [Example P75] | 60% | 79% | 27% | 43% | – | – | – | – |
| Nc1nc(NC2CCN(S(=O)(=O)CCc3cccc4ccccc34)CC2)sc1C(=O)c1c(F)cccc1F [Example P76] | 9% | 33% | 23% | – | – | – | – | – |
| N#Cc1cccc(S(=O)(=O)N2CCC(Nc3nc(N)c(C(=O)c4c(F)cccc4F)s3)CC2)c1 [Example P77] | 19% | 43% | 21% | 20% | – | – | – | – |
| CCc1cc(Br)ccc1S(=O)(=O)N1CCC(Nc2nc(N)c(C(=O)c3c(F)cccc3F)s2)CC1 [Example P78] | 17% | 24% | 27% | 23% | – | – | – | – |
| Nc1nc(NC2CCN(S(=O)(=O)c3c(Cl)nc4sccn34)CC2)sc1C(=O)c1c(F)cccc1F [Example P79] | 53% | 44% | 10% | 18% | – | – | – | – |
| CS(=O)(=O)c1ccc(S(=O)(=O)N2CCC(Nc3nc(N)c(C(=O)c4c(F)cccc4F)s3)CC2)cc1 [Example P80] | 81% | 73% | 15% | 29% | – | – | – | – |
| CS(=O)(=O)c1ccccc1S(=O)(=O)N1CCC(Nc2nc(N)c(C(=O)c3c(F)cccc3F)s2)CC1 [Example P81] | −5% | 36% | 12% | 19% | – | – | – | – |
| Nc1nc(NC2CCN(S(=O)(=O)c3c(Cl)cc(C(F)(F)F)cc3Cl)CC2)sc1C(=O)c1c(F)cccc1F [Example P82] | −23% | 12% | 17% | 24% | – | – | – | – |
| [N-]=[N+]=C1C=C(S(=O)(=O)N2CCC(Nc3nc(N)c(C(=O)c4c(F)cccc4F)s3)CC2)c2ccccc2C1=O [Example P83] | −11% | 25% | 10% | 26% | – | – | – | – |
| Nc1nc(NC2CCN(S(=O)(=O)c3ccc(Oc4ccccc4)cc3)CC2)sc1C(=O)c1c(F)cccc1F [Example P84] | 28% | 38% | 10% | 26% | – | – | – | – |
| Nc1nc(NC2CCN(S(=O)(=O)c3ccc(Oc4ccncc4)cc3)CC2)sc1C(=O)c1c(F)cccc1F [Example P85] | −28% | 14% | 12% | 26% | – | – | – | – |
| Nc1nc(NC2CCN(S(=O)(=O)c3ccc(Oc4ccc(I)cc4)cc3)CC2)sc1C(=O)c1c(F)cccc1F [Example P86] | 38% | 51% | 7% | 26% | – | – | – | – |
| Nc1nc(NC2CCN(S(=O)(=O)c3ccc(Sc4ccncc4)cc3)CC2)sc1C(=O)c1c(F)cccc1F [Example P87] | −25% | −5% | 9% | 22% | – | – | – | – |
| Cc1ccc2cc(S(=O)(=O)N3CCC(Nc4nc(N)c(C(=O)c5c(F)cccc5F)s4)CC3)ccc2c1 [Example P88] | 44% | 49% | 7% | 34% | – | – | – | – |
| CN(C(=O)N1CCC(Nc2nc(N)c(C(=O)c3c(F)cccc3F)s2)CC1)c1ccccc1 [Example Q1] | – | – | – | – | −7% | 31% | 0% | 38% |
| CN(C)C(=O)N1CCC(Nc2nc(N)c(C(=O)c3c(F)cccc3F)s2)CC1 [Example Q2] | – | – | – | – | −43% | 13% | 0.71% | 43% |
| CCN(CC)C(=O)N1CCC(Nc2nc(N)c(C(=O)c3c(F)cccc3F)s2)CC1 [Example Q3] | – | – | – | – | −43% | 11% | 0% | 42% |
| Nc1nc(NC2CCN(C(=O)Oc3ccccc3)CC2)sc1C(=O)c1c(F)cccc1F [Example Q4] | – | – | – | – | 59% | 78% | 0% | 41% |
| Nc1nc(NC2CCN(C(=O)Oc3ccc(Cl)cc3)CC2)sc1C(=O)c1c(F)cccc1F [Example Q5] | – | – | – | – | 45% | 81% | 0.81% | 36% |
| Nc1nc(NC2CCN(C(=O)OCc3ccccc3)CC2)sc1C(=O)c1c(F)cccc1F [Example Q6] | – | – | – | – | −32% | 24% | 9% | 38% |
| CCCCC(CC)COC(=O)N1CCC(Nc2nc(N)c(C(=O)c3c(F)cccc3F)s2)CC1 (stereo not shown) [Example Q7] | – | – | – | – | −42% | 5% | 5% | 39% |
| CCOC(=O)N1CCC(Nc2nc(N)c(C(=O)c3c(F)cccc3F)s2)CC1 [Example Q8] | – | – | – | – | −13% | 15% | 6% | 45% |
